From patent US20230374038A1, “MODULATORS OF CYSTIC FIBROSIS TRANSMEMBRANE CONDUCTANCE REGULATOR” (VERTEX PHARMACEUTICALS INCORPORATED, priority 2020, published 2023)

The compounds below were run against T1, CFTR (Homo sapiens, UniProt P13569, DEL508-508) (assay: HBE Assay: Ussing chamber assay of CFTR-mediated short-circuit currents in F508del/MF-HBE cells with 1 μM Ivacaftor). Conditions: range of concentrations with 1 μM Ivacaftor, 18-24 hours, 20% human serum.
T1 construct: endogenous in cells; host or cells: primary human bronchial epithelial cells, F508del/MF genotype
T1 sequence (P13569 with tags, fused parts or gaps DEL508-508): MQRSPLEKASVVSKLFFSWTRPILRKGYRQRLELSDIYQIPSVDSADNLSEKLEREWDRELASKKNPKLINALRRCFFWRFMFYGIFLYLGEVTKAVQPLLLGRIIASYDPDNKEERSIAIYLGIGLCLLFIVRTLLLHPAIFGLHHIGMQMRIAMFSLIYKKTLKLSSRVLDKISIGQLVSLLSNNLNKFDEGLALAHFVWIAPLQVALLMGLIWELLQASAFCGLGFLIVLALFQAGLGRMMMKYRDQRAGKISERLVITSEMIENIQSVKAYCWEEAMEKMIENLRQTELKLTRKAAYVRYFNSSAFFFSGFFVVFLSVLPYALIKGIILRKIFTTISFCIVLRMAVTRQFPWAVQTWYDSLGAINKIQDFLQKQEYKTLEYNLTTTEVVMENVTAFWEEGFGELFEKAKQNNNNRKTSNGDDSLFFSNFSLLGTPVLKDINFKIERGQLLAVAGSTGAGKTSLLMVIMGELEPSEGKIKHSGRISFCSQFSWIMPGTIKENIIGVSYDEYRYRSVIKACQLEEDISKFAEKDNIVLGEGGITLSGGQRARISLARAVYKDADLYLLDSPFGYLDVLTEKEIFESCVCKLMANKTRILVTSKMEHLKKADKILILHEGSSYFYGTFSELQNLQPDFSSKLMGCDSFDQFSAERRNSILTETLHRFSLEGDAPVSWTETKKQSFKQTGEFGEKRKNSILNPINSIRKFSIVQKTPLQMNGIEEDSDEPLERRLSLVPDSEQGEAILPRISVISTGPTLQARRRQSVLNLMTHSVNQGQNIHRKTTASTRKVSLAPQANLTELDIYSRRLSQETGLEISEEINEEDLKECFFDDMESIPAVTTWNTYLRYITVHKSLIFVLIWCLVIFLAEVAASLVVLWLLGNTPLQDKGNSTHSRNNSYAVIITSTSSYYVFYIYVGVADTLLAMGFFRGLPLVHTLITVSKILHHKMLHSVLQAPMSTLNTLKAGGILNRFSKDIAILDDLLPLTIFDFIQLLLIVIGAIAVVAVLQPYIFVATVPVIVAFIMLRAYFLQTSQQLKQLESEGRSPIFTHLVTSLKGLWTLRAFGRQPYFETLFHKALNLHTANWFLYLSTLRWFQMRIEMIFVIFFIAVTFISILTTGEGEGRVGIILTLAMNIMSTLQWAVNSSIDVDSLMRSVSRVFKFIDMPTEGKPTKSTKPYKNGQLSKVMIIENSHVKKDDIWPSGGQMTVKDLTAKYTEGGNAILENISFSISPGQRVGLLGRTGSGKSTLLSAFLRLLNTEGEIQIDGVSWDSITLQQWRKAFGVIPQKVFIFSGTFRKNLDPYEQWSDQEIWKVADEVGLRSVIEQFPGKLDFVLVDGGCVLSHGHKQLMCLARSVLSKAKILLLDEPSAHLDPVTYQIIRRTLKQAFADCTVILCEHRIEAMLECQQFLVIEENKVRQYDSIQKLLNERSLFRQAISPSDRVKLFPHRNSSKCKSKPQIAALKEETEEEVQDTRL
Assay type: cell-based
Summary of the method: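 F508del/MF-HBE cells at air-liquid interface >14 days were incubated 18-24 h at 37° C with corrector (concentration range or fixed 10 μM) plus 1 μM Ivacaftor in 20% human serum, compounds kept throughout. Ussing chamber, Vhold=0 mV, 37° C, apical amiloride 30 μM; ISC (μA/cm^2) from peak 20 μM forskolin response to steady state after CFTR inhibitor cocktail.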
An EC50 of less than 1000 nM was found for `CCOc1cnc(CN2C(=O)c3cccc(c3)S(=O)(=O)Nc3nc(c(C)c(-c4c(C)cccc4CC(C)C)n3)OC[C@H]2CC(C)(C)C)nc1` (atropisomer, axis not shown) [Compound 339] in this work. An EC50 of 1000 to 3000 nM was found for `Cc1cccc(C)c1-c1nc2nc(c1F)OC[C@@H](CC1CC1)N(Cc1ncc(OC3CCC3)cn1)C(=O)c1cccc(c1)S(=O)(=O)N2` [Compound 344] in this work. An EC50 of less than 1000 nM was found for `Cc1cccc(C)c1-c1nc2nc(c1F)OC[C@@H](CC(C)C)N(Cc1ncc(OC3CCC3)cn1)C(=O)c1cccc(c1)S(=O)(=O)N2` [Compound 338] in this work. An EC50 of less than 1000 nM was found for `Cc1cccc(C)c1-c1nc2nc(c1F)OC[C@@H](CC(C)C)N(Cc1ncc(N3CCC(C)(C)C3)cn1)C(=O)c1cccc(c1)S(=O)(=O)N2` [Compound 342] in this work. An EC50 of less than 1000 nM was found for `Cc1cccc(C)c1-c1nc2nc(c1C)OC[C@@H](CC1CC1)N(Cc1ncc(OC(C)C)cn1)C(=O)c1cccc(c1)S(=O)(=O)N2` [Compound 345] in this work.

Same assay, conditions: single fixed concentration of 10 μM, with 1 μM Ivacaftor, 20% human serum
`Cc1cccc(CC(C)C)c1-c1nc2nc(c1C)OC[C@@H](CC(C)C)N(Cc1cnc(C3CCOCC3)cn1)C(=O)c1cccc(c1)S(=O)(=O)N2` (atropisomer, axis not shown) [Compound 315] was tested, and the “HBE Activity at 10 μM” value was “+++ (+++ is >600%)”. With `Cc1cccc(CC2CCOCC2)c1-c1nc2nc(c1C)OC[C@@H](CC(C)(C)C)N(Cc1ccc(N3CCOCC3)cn1)C(=O)c1cccc(c1)S(=O)(=O)N2` (atropisomer, axis not shown) [Compound 275] the “HBE Activity at 10 μM” value was “+++ (+++ is >600%)”. In the case of `Cc1cccc(CC2CCCCC2)c1-c1nc2nc(c1C(F)(F)F)OC[C@@H](CC(C)(C)C)N(Cc1ccc(N3CCOCC3)cn1)C(=O)c1cccc(c1)S(=O)(=O)N2` (atropisomer, axis not shown) [Compound 249], the “HBE Activity at 10 μM” value is reported as “++ (++ is 30-60%)”. With `Cc1cccc(COC(C)C)c1-c1nc2nc(c1C)OC[C@@H](CC(C)(C)C)N(Cc1nccc(N(C)C(C)C)n1)C(=O)c1cccc(c1)S(=O)(=O)N2` (atropisomer, axis not shown) [Compound 229] the “HBE Activity at 10 μM” value was “+++ (+++ is >600%)”.

Same assay, conditions: with 1 μM Ivacaftor, 18-24 hours, 20% human serum
`Cc1cccc(C)c1-c1nc2nc(c1C)OC[C@@H](CC(C)(C)C)N(c1cnn(C)c1Br)C(=O)c1cccc(c1)S(=O)(=O)N2` [Compound 56, (11R)-12-(5-Bromo-1-methyl-pyrazol-4-yl)-6-(2,6-dimethylphenyl)-11-(2,2-dimethylpropyl)-7-methyl-2,2-dioxo-9-oxa-2λ^6-thia-3,5,12,19-tetrazatricyclo[12.3.1.14,8]nonadeca-1(18),4(19),5,7,14,16-hexaen-13-one] was tested, and the EC50 was less than 1000 nM and the “HBE Max Activity” value was “+++ (+++ is >600%)”. For `Cc1cccc(CC2CCCCC2)c1-c1nc2nc(c1C)OC[C@@H](CC(C)(C)C)NC(=O)c1cccc(c1)S(=O)(=O)N2` (atropisomer, axis not shown) [Compound 311], the EC50 was less than 1000 nM and the “HBE Max Activity” value was “+++ (+++ is >600%)”. With `Cc1cccc(C2CC2)c1-c1nc2nc(c1C)OC[C@@H](CC(C)(C)C)N(Cc1cnc(C3CCOCC3)cn1)C(=O)c1cccc(c1)S(=O)(=O)N2` (atropisomer, axis not shown) [Compound 320] the EC50 was less than 1000 nM and the “HBE Max Activity” value was “+++ (+++ is >600%)”. With `COCCN(C)c1cnc(CN2C(=O)c3cccc(c3)S(=O)(=O)Nc3nc(c(C)c(-c4c(C)cccc4CC4CCCCC4)n3)OC[C@H]2CC(C)(C)C)nc1` [Compound 283] the EC50 was less than 1000 nM and the “HBE Max Activity” value was “+++ (+++ is >600%)”. With `Cc1cccc(CC2CCCC2)c1-c1nc2nc(c1C)OC[C@@H](CC(C)(C)C)N(Cc1cccc(N(C)C(C)C)n1)C(=O)c1cccc(c1)S(=O)(=O)N2` (atropisomer, axis not shown) [Compound 273] the EC50 was less than 1000 nM and the “HBE Max Activity” value was “+++ (+++ is >600%)”. `Cc1cccc(CC(C)C)c1-c1nc2nc(c1C)OC[C@@H](CC(C)(C)C)N(Cc1cncc(N(C)C(C)C)n1)C(=O)c1cccc(c1)S(=O)(=O)N2` (atropisomer, axis not shown) [Compound 238] was tested, and the EC50 was less than 1000 nM and the “HBE Max Activity” value was “+++ (+++ is >600%)”. With `Cc1cccc(C)c1-c1nc2nc(c1C)OC[C@@H](CC(C)(C)C)N(Cc1ccc(N3CCCCC3)cn1)C(=O)c1cccc(c1)S(=O)(=O)N2` [Compound 85] the EC50 was less than 1000 nM and the “HBE Max Activity” value was “+++ (+++ is >600%)”. For `Cc1cccc(CC2CCCC2)c1-c1nc2nc(c1C)OC[C@@H](CC(C)(C)C)N(Cc1ccc(OC(C)C)cn1)C(=O)c1cccc(c1)S(=O)(=O)N2` (atropisomer, axis not shown) [Compound 267], the EC50 was less than 1000 nM and the “HBE Max Activity” value was “+++ (+++ is >600%)”. With `Cc1cccc(CC2CCOCC2)c1-c1nc2nc(c1C)OC[C@@H](CC(C)(C)C)N(Cc1ncc(N3CCOCC3)cn1)C(=O)c1cccc(c1)S(=O)(=O)N2` (single isomer, unassigned) [Compound 218] the EC50 was less than 1000 nM and the “HBE Max Activity” value was “+++ (+++ is >600%)”. `Cc1cccc(CC2CCCCC2)c1-c1nc2nc(c1C)OC[C@@H](CC(C)(C)C)N(Cc1ncc(OC(C)C)cn1)C(=O)c1cccc(c1)S(=O)(=O)N2` [Compound 234] was tested, and the EC50 was less than 1000 nM and the “HBE Max Activity” value was “+++ (+++ is >600%)”. `Cc1cccc(CC2CCCCC2)c1-c1nc2nc(c1C)OC[C@@H](CC(C)(C)C)N(Cc1ncccc1N1CCOCC1)C(=O)c1cccc(c1)S(=O)(=O)N2` (atropisomer, axis not shown) [Compound 310] was tested, and the EC50 was less than 1000 nM and the “HBE Max Activity” value was “+++ (+++ is >600%)”. With `Cc1cccc(CC2CCCCC2)c1-c1nc2nc(c1C)OC[C@@H](CC(C)(C)C)N(Cc1ccc(N3CCOCC3)cn1)C(=O)c1cccc(c1)S(=O)(=O)N2` (single isomer, unassigned) [Compound 206] the EC50 was less than 1000 nM and the “HBE Max Activity” value was “+++ (+++ is >600%)”. `Cc1cccc(CC(C)C)c1-c1nc2nc(c1C)OC[C@@H](CC(C)(C)C)N(Cc1cccc(N(C)C(C)C)n1)C(=O)c1cccc(c1)S(=O)(=O)N2` (atropisomer, axis not shown) [Compound 235] was tested, and the EC50 was less than 1000 nM and the “HBE Max Activity” value was “+++ (+++ is >600%)”. `Cc1cccc(CC2CCCCC2)c1-c1nc2nc(c1C)OC[C@@H](CC(C)(C)C)N(Cc1nccc(N3CCOCC3)n1)C(=O)c1cccc(c1)S(=O)(=O)N2` (atropisomer, axis not shown) [Compound 263] was tested, and the EC50 was less than 1000 nM and the “HBE Max Activity” value was “+++ (+++ is >600%)”. For `Cc1c2nc(nc1-c1ccccc1C(C)(C)C)NS(=O)(=O)c1cccc(c1)C(=O)N(Cc1ccc(N3CCOCC3)cn1)[C@H](CC(C)(C)C)CO2` [Compound 181], the EC50 was less than 1000 nM and the “HBE Max Activity” value was “+++ (+++ is >600%)”. In the case of `COc1ccc(CN2C(=O)c3cccc(c3)S(=O)(=O)Nc3nc(c(C)c(-c4c(C)cccc4CC4CCCCC4)n3)OC[C@H]2CC(C)(C)C)nc1` (atropisomer, axis not shown) [Compound 301], the EC50 is reported as less than 1000 nM and the “HBE Max Activity” value is reported as “+++ (+++ is >600%)”. In the case of `Cc1cccc(CC2CCCCC2)c1-c1nc2nc(c1C)OC[C@@H](CC(C)(C)C)N(Cc1ccc(OC(C)C)cn1)C(=O)c1cccc(c1)S(=O)(=O)N2` (atropisomer, axis not shown) [Compound 279], the EC50 is reported as 1000 to 3000 nM and the “HBE Max Activity” value is reported as “+++ (+++ is >600%)”. With `Cc1cccc(C)c1-c1nc2nc(c1C)OC[C@@H](CC(C)C)N(Cc1ncc(OC(C)C)cn1)C(=O)c1cccc(c1)S(=O)(=O)N2` [Compound 193] the EC50 was less than 1000 nM and the “HBE Max Activity” value was “+++ (+++ is >600%)”. With `Cc1cccc(CC(C)C)c1-c1nc2nc(c1C)OC[C@@H](C)N(Cc1ncc(N3CCC(C)(C)C3)cn1)C(=O)c1cccc(c1)S(=O)(=O)N2` (atropisomer, axis not shown) [Compound 242] the EC50 was less than 1000 nM and the “HBE Max Activity” value was “+++ (+++ is >600%)”. `Cc1cccc(CC2CCCC2)c1-c1nc2nc(c1C)OC[C@@H](CC(C)(C)C)N(Cc1ncc(OC(C)C)cn1)C(=O)c1cccc(c1)S(=O)(=O)N2` (atropisomer, axis not shown) [Compound 266] was tested, and the EC50 was less than 1000 nM and the “HBE Max Activity” value was “+++ (+++ is >600%)”. In the case of `Cc1cccc(CC(C)C)c1-c1nc2nc(c1C)OC[C@@H](CC(C)(C)C)N(Cc1ncc(N(C)C)cn1)C(=O)c1cccc(c1)S(=O)(=O)N2` (atropisomer, axis not shown) [Compound 236], the EC50 is reported as less than 1000 nM and the “HBE Max Activity” value is reported as “+++ (+++ is >600%)”. In the case of `Cc1cccc(CC2CCCCC2)c1-c1nc2nc(c1C)OC[C@@H](CC(C)(C)C)N(Cc1cccc(N(C(C)C)C(C)C)n1)C(=O)c1cccc(c1)S(=O)(=O)N2` (atropisomer, axis not shown) [Compound 256], the EC50 is reported as less than 1000 nM and the “HBE Max Activity” value is reported as “+++ (+++ is >600%)”. In the case of `Cc1cccc(CC(C)C)c1-c1nc2nc(c1C)OC[C@@H](CC(C)(C)C)N(Cc1ncc(N3CCC(C)(C)C3)cn1)C(=O)c1cccc(c1)S(=O)(=O)N2` (atropisomer, axis not shown) [Compound 243], the EC50 is reported as 1000 to 3000 nM and the “HBE Max Activity” value is reported as “+++ (+++ is >600%)”.

Same assay, conditions: with 1 μM Ivacaftor, 18-24 hours, 20% human serum, compared to known Vertex corrector with 18 μM Tezacaftor and 1 μM Ivacaftor, read-out: HBE Max activity (%)
An Emax greater than 60% was found for `CCOc1cnc(CN2C(=O)c3cccc(c3)S(=O)(=O)Nc3nc(c(C)c(-c4c(C)cccc4CC(C)C)n3)OC[C@H]2CC(C)(C)C)nc1` (atropisomer, axis not shown) [Compound 339] in this work. An Emax greater than 60% was found for `Cc1cccc(C)c1-c1nc2nc(c1F)OC[C@@H](CC1CC1)N(Cc1ncc(OC3CCC3)cn1)C(=O)c1cccc(c1)S(=O)(=O)N2` [Compound 344] in this work. An Emax greater than 60% was found for `Cc1cccc(C)c1-c1nc2nc(c1F)OC[C@@H](CC(C)C)N(Cc1ncc(OC3CCC3)cn1)C(=O)c1cccc(c1)S(=O)(=O)N2` [Compound 338] in this work. An Emax greater than 60% was found for `Cc1cccc(C)c1-c1nc2nc(c1F)OC[C@@H](CC(C)C)N(Cc1ncc(N3CCC(C)(C)C3)cn1)C(=O)c1cccc(c1)S(=O)(=O)N2` [Compound 342] in this work. An Emax greater than 60% was found for `Cc1cccc(C)c1-c1nc2nc(c1C)OC[C@@H](CC1CC1)N(Cc1ncc(OC(C)C)cn1)C(=O)c1cccc(c1)S(=O)(=O)N2` [Compound 345] in this work.
